Data: PubChem BioAssay (NCI)
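In this assay, cells in 96-well plates receive the compound at five concentrations for 48 hours. Endpoints are linearly interpolated between the surrounding concentrations. GI50 is the concentration that inhibits growth by half. The concentration for full growth arrest is given as TGI.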

Assays:
Assay in all cases: NCI tumour cell line growth inhibition, 48 h
A549 NSCLC = tested on: A549 NSCLC
CAKI-1 renal = tested on: CAKI-1 renal
OVCAR-4 ovarian = tested on: OVCAR-4 ovarian
SF-268 CNS = tested on: SF-268 CNS
KM12 colon = tested on: KM12 colon
COLO 205 colon = tested on: COLO 205 colon
UACC-257 melanoma = tested on: UACC-257 melanoma
MALME-3M melanoma = tested on: MALME-3M melanoma
LXFL 529 NSCLC = tested on: LXFL 529 NSCLC
HOP-18 NSCLC = tested on: HOP-18 NSCLC
NCI-H460 lung = tested on: NCI-H460 lung
SF-539 CNS = tested on: SF-539 CNS
HCT-15 colon = tested on: HCT-15 colon
K-562 leukemia = tested on: K-562 leukemia
SNB-78 CNS = tested on: SNB-78 CNS
A498 renal = tested on: A498 renal
SNB-19 CNS = tested on: SNB-19 CNS
HCC-2998 colon = tested on: HCC-2998 colon
U251 CNS = tested on: U251 CNS
OVCAR-8 ovarian = tested on: OVCAR-8 ovarian
RPMI-8226 leukemia = tested on: RPMI-8226 leukemia
DLD-1 colon = tested on: DLD-1 colon
OVCAR-3 ovarian = tested on: OVCAR-3 ovarian
HT29 colon = tested on: HT29 colon
HOP-62 NSCLC = tested on: HOP-62 NSCLC
SN12C renal = tested on: SN12C renal
NCI-H23 lung = tested on: NCI-H23 lung
SW-620 colon = tested on: SW-620 colon
CCRF-CEM leukemia = tested on: CCRF-CEM leukemia
SK-MEL-5 melanoma = tested on: SK-MEL-5 melanoma
IGROV1 ovarian = tested on: IGROV1 ovarian
M14 melanoma = tested on: M14 melanoma
LOX IMVI melanoma = tested on: LOX IMVI melanoma
SR leukemia = tested on: SR leukemia
HL-60(TB) leukemia = tested on: HL-60(TB) leukemia
HCT-116 colon = tested on: HCT-116 colon
SF-295 CNS = tested on: SF-295 CNS
ACHN renal = tested on: ACHN renal
786-0 renal = tested on: 786-0 renal
MOLT-4 leukemia = tested on: MOLT-4 leukemia
EKVX NSCLC = tested on: EKVX NSCLC
UO-31 renal = tested on: UO-31 renal
TK-10 renal = tested on: TK-10 renal
DMS 273 small cell lung = tested on: DMS 273 small cell lung
SK-OV-3 ovarian = tested on: SK-OV-3 ovarian
RXF 393 renal = tested on: RXF 393 renal
OVCAR-5 ovarian = tested on: OVCAR-5 ovarian
SNB-75 CNS = tested on: SNB-75 CNS
NCI-H226 lung = tested on: NCI-H226 lung
SK-MEL-28 melanoma = tested on: SK-MEL-28 melanoma
SK-MEL-2 melanoma = tested on: SK-MEL-2 melanoma
NCI-H522 lung = tested on: NCI-H522 lung
HOP-92 NSCLC = tested on: HOP-92 NSCLC
DMS 114 small cell lung = tested on: DMS 114 small cell lung
M19-MEL melanoma = tested on: M19-MEL melanoma
UACC-62 melanoma = tested on: UACC-62 melanoma

N.N.NCCCCCCN.O=C([O-])CCl.O=C([O-])CCl.O=C([O-])CCl.O=C([O-])CCl.[Pt+4].[Pt+4]
GI50 (A549 NSCLC): > 50 µM | TGI (A549 NSCLC): > 50 µM | GI50 (CAKI-1 renal): 24.7 µM | TGI (CAKI-1 renal): > 50 µM | GI50 (OVCAR-4 ovarian): > 50 µM | TGI (OVCAR-4 ovarian): > 50 µM | GI50 (SF-268 CNS): 18.8 µM | TGI (SF-268 CNS): > 50 µM | GI50 (KM12 colon): > 50 µM | TGI (KM12 colon): > 50 µM | GI50 (COLO 205 colon): 9.54 µM | TGI (COLO 205 colon): > 50 µM | GI50 (UACC-257 melanoma): > 50 µM | TGI (UACC-257 melanoma): > 50 µM | GI50 (MALME-3M melanoma): > 50 µM | TGI (MALME-3M melanoma): > 50 µM | GI50 (LXFL 529 NSCLC): > 50 µM | TGI (LXFL 529 NSCLC): > 50 µM | GI50 (HOP-18 NSCLC): > 50 µM | TGI (HOP-18 NSCLC): > 50 µM | GI50 (NCI-H460 lung): 3.11 µM | TGI (NCI-H460 lung): > 50 µM | GI50 (SF-539 CNS): 45.2 µM | TGI (SF-539 CNS): > 50 µM | GI50 (HCT-15 colon): > 50 µM | TGI (HCT-15 colon): > 50 µM | GI50 (K-562 leukemia): > 50 µM | TGI (K-562 leukemia): > 50 µM | GI50 (SNB-78 CNS): > 50 µM | TGI (SNB-78 CNS): > 50 µM | GI50 (A498 renal): > 50 µM | TGI (A498 renal): > 50 µM | GI50 (SNB-19 CNS): 27.8 µM | TGI (SNB-19 CNS): > 50 µM | GI50 (HCC-2998 colon): > 50 µM | TGI (HCC-2998 colon): > 50 µM | GI50 (U251 CNS): 25.2 µM | TGI (U251 CNS): > 50 µM | GI50 (OVCAR-8 ovarian): > 50 µM | TGI (OVCAR-8 ovarian): > 50 µM | GI50 (RPMI-8226 leukemia): > 50 µM | TGI (RPMI-8226 leukemia): > 50 µM | GI50 (DLD-1 colon): > 50 µM | TGI (DLD-1 colon): > 50 µM | GI50 (OVCAR-3 ovarian): > 50 µM | TGI (OVCAR-3 ovarian): > 50 µM | GI50 (HT29 colon): 37.1 µM | TGI (HT29 colon): > 50 µM | GI50 (HOP-62 NSCLC): 6.04 µM | TGI (HOP-62 NSCLC): > 50 µM | GI50 (SN12C renal): 3.74 µM | TGI (SN12C renal): > 50 µM | GI50 (NCI-H23 lung): 27.1 µM | TGI (NCI-H23 lung): > 50 µM | GI50 (SW-620 colon): > 50 µM | TGI (SW-620 colon): > 50 µM | GI50 (CCRF-CEM leukemia): 2.73 µM | TGI (CCRF-CEM leukemia): > 50 µM | GI50 (SK-MEL-5 melanoma): > 50 µM | TGI (SK-MEL-5 melanoma): > 50 µM | GI50 (IGROV1 ovarian): > 50 µM | TGI (IGROV1 ovarian): > 50 µM | GI50 (M14 melanoma): > 50 µM | TGI (M14 melanoma): > 50 µM | GI50 (LOX IMVI melanoma): > 50 µM | TGI (LOX IMVI melanoma): > 50 µM | GI50 (SR leukemia): 8.23 µM | TGI (SR leukemia): > 50 µM | GI50 (HL-60(TB) leukemia): 15.5 µM | TGI (HL-60(TB) leukemia): > 50 µM | GI50 (HCT-116 colon): > 50 µM | TGI (HCT-116 colon): > 50 µM | GI50 (SF-295 CNS): > 50 µM | TGI (SF-295 CNS): > 50 µM | GI50 (ACHN renal): 35.9 µM | TGI (ACHN renal): > 50 µM | GI50 (786-0 renal): > 50 µM | TGI (786-0 renal): > 50 µM | GI50 (MOLT-4 leukemia): 1.73 µM | TGI (MOLT-4 leukemia): > 50 µM | GI50 (EKVX NSCLC): > 50 µM | TGI (EKVX NSCLC): > 50 µM | GI50 (UO-31 renal): > 50 µM | TGI (UO-31 renal): > 50 µM | GI50 (TK-10 renal): > 50 µM | TGI (TK-10 renal): > 50 µM | GI50 (DMS 273 small cell lung): > 50 µM | TGI (DMS 273 small cell lung): > 50 µM | GI50 (SK-OV-3 ovarian): > 50 µM | TGI (SK-OV-3 ovarian): > 50 µM | GI50 (RXF 393 renal): 13.1 µM | TGI (RXF 393 renal): > 50 µM | GI50 (OVCAR-5 ovarian): > 50 µM | TGI (OVCAR-5 ovarian): > 50 µM | GI50 (SNB-75 CNS): 8.34 µM | TGI (SNB-75 CNS): > 50 µM | GI50 (NCI-H226 lung): 17 µM | TGI (NCI-H226 lung): > 50 µM | GI50 (SK-MEL-28 melanoma): > 50 µM | TGI (SK-MEL-28 melanoma): > 50 µM | GI50 (SK-MEL-2 melanoma): > 50 µM | TGI (SK-MEL-2 melanoma): > 50 µM | GI50 (NCI-H522 lung): 10.9 µM | TGI (NCI-H522 lung): > 50 µM

Clc1ccc(C2=NOC(C3CCCCC3)C2)cc1 (stereo not given)
TGI (A549 NSCLC): > 100 µM | TGI (OVCAR-4 ovarian): > 100 µM | TGI (SF-268 CNS): > 100 µM | TGI (KM12 colon): > 100 µM | TGI (COLO 205 colon): > 100 µM | TGI (UACC-257 melanoma): > 100 µM | TGI (MALME-3M melanoma): > 100 µM | TGI (LXFL 529 NSCLC): > 100 µM | TGI (HOP-92 NSCLC): > 100 µM | TGI (DMS 114 small cell lung): > 100 µM | TGI (HOP-18 NSCLC): > 100 µM | TGI (NCI-H460 lung): > 100 µM | TGI (SF-539 CNS): > 100 µM | TGI (HCT-15 colon): > 100 µM | TGI (K-562 leukemia): > 100 µM | TGI (SNB-78 CNS): > 100 µM | TGI (A498 renal): > 100 µM | TGI (HCC-2998 colon): > 100 µM | TGI (U251 CNS): > 100 µM | TGI (OVCAR-8 ovarian): > 100 µM | TGI (RPMI-8226 leukemia): > 100 µM | TGI (DLD-1 colon): > 100 µM | TGI (OVCAR-3 ovarian): > 100 µM | TGI (HT29 colon): > 100 µM | TGI (HOP-62 NSCLC): > 100 µM | TGI (SN12C renal): > 100 µM | TGI (NCI-H23 lung): > 100 µM | TGI (SW-620 colon): > 100 µM | TGI (CCRF-CEM leukemia): > 100 µM | TGI (SK-MEL-5 melanoma): > 100 µM | TGI (IGROV1 ovarian): > 100 µM | TGI (M14 melanoma): > 100 µM | TGI (SR leukemia): > 100 µM | TGI (HL-60(TB) leukemia): > 100 µM | TGI (HCT-116 colon): > 100 µM | TGI (SF-295 CNS): > 100 µM | TGI (ACHN renal): > 100 µM | TGI (786-0 renal): > 100 µM | TGI (MOLT-4 leukemia): > 100 µM | TGI (UO-31 renal): > 100 µM | TGI (M19-MEL melanoma): > 100 µM | TGI (TK-10 renal): > 100 µM | TGI (DMS 273 small cell lung): > 100 µM | TGI (UACC-62 melanoma): > 100 µM | TGI (SK-OV-3 ovarian): > 100 µM | TGI (OVCAR-5 ovarian): > 100 µM | TGI (SNB-75 CNS): > 100 µM | TGI (NCI-H226 lung): > 100 µM | TGI (SK-MEL-28 melanoma): > 100 µM | TGI (SK-MEL-2 melanoma): > 100 µM | TGI (NCI-H522 lung): > 100 µM
